PMC9545004, “Transglutaminase 2 affinity and enzyme‐substrate intermediate stability as determining factors for T‐cell responses to gluten peptides in celiac disease” (European Journal of Immunology, 2022)

What was measured:
[1] = system: TG2-specific A20 cells expressing DQ2.5 and DQ2.5-glia-ω2 TCR transfectants; test: Effect of primary amines on T-cell response to deamidated gluten peptide (off-target/toxicity control); format: cell-based, Murine A20 B cells and BW58α–β– cells; conditions: 30 min pre-incubation of A20 cells with amine, then D-ω-gliadin 34-mer and DQ2.5-glia-ω2 TCR transfectants; IL-2; Figure S6
Method: The B‐cell/T‐cell collaboration assays were set up as previously described. To compare the uptake and presentation of different gluten peptides to T cells, A20 cells (5 mill/mL) expressing the TG2‐specific BCR (679‐14‐E06) and HLA DQ2.5 were incubated with recombinant TG2 (final 3 µg/mL) and varying amounts of N‐α‐gliadin 20‐mer, N‐ω‐gliadin 19‐mer, or N‐γ‐gliadin 21‐mer in RPMI supplemented with 2 mM CaCl2. After a 30 min incubation at 37°C the cells were washed with 1% FCS/RPMI and resuspended in 5% FCS/RPMI to give a final 1.5 million cells/mL (150 000/well) followed by 2 h incubation at 37°C. Next, TCR‐transfectant cells specific for either DQ2.5‐glia‐α2, DQ2.5‐glia‐ω2, or DQ2.5‐glia‐γ1 were added (25 000/well), followed by overnight incubation at 37°C. The next day, IL‐2 concentration was measured in the culture supernatant by ELISA as previously described. The responsiveness of different TCR transfectants was assessed in the same way, but without the 30 min incubation with TG2, and using the synthetic deamidated peptides (D‐α‐gliadin 20‐mer, D‐ω‐gliadin 17‐mer, and D‐γ‐gliadin 21‐mer). […]
or T cells in our cellular assays. […] T-cell activation was assessed b y ELISA quant ification of IL-2 secreted into the cell culture medium. […]

[2] = system: TCR-transfectant cells specific for DQ2.5-glia-α2; test: Inhibition by primary amines of activation of DQ2.5-glia-α2-specific T cells by TG2-specific B cells, IL-2 ELISA; format: cell-based; conditions: for IC50: 5 µM N-α-gliadin 33-mer, TG2, CaCl2, amine 0-1000 µM, IL-2 ELISA
Description: (§1) Murine A20 B lymphoma cells engineered to express either the celiac patient‐derived TG2‐specific BCR 679‐14‐E06 or the non‐TG2‐specific BCR 693‐2‐F02 as human IgD are previously described. For B‐cell/T‐cell collaboration assays, we used A20 BCR transfectants also transduced to express HLA‐DQ2.5 [27]. Murine BW58α^–β^– cells were retrovirally transduced to express human CD4 as well as the celiac patient‐derived gluten‐specific TCR from a DQ2.5‐glia‐γ1‐reactive T‐cell clone (TCC 4.32) as previously described. The generation of TCR transfectants expressing DQ2.5‐glia‐α2‐reactive TCR (TCC 364.14) and DQ2.5‐glia‐ω2‐reactive TCR (clone 737.30) have been described previously.
The B‐cell/T‐cell collaboration assays were set up as previously described. To compare the uptake and presentation of different gluten peptides to T cells, A20 cells (5 mill/mL) expressing the TG2‐specific BCR (679‐14‐E06) and HLA DQ2.5 were incubated with recombinant TG2 (final 3 µg/mL) and varying amounts of N‐α‐gliadin 20‐mer, N‐ω‐gliadin 19‐mer, or N‐γ‐gliadin 21‐mer in RPMI supplemented with 2 mM CaCl2. After a 30 min incubation at 37°C the cells were washed with 1% FCS/RPMI and resuspended in 5% FCS/RPMI to give a final 1.5 million cells/mL (150 000/well) followed by 2 h incubation at 37°C. Next, TCR‐transfectant cells specific for either DQ2.5‐glia‐α2, DQ2.5‐glia‐ω2, or DQ2.5‐glia‐γ1 were added (25 000/well), followed by overnight incubation at 37°C. The next day, IL‐2 concentration was measured in the culture supernatant by ELISA as previously described. The responsiveness of different TCR transfectants was assessed in the same way, but without the 30 min incubation with TG2, and using the synthetic deamidated peptides (D‐α‐gliadin 20‐mer, D‐ω‐gliadin 17‐mer, and D‐γ‐gliadin 21‐mer). To assess how TG2 secondary substrate affects peptide uptake and presentation to T cells, TG2‐specific A20 cells expressing DQ2.5 were incubated with TG2, CaCl2, 5 µM N‐ω‐gliadin 34‐mer, or 5 µM N‐α‐gliadin 33‐mer in the presence of primary amines at increasing concentrations (0‐1000 µM), before the addition of TCR‐transfectant cells specific for the DQ2.5‐glia‐α2 or DQ2.5‐glia‐ω2 epitopes. The dose‐response curve fitting to find IC50 was done using the “[Inhibitor] vs. response” equation in GraphPad Prism 8.3.0. To examine whether primary amines directly affect the B cells, TG2‐specific A20 cell expressing DQ2.5 were incubated with primary amines for 30 min and washed, before addition of 2 µM D‐ω‐gliadin 34‐mer, followed by incubation with DQ2.5‐glia‐ω2 TCR transfectants.

[3] = system: TCR-transfectant cells specific for DQ2.5-glia-α2 or DQ2.5-glia-ω2; test: Inhibition by primary amines of gluten-specific T-cell stimulation via TG2-specific B cells, both epitopes; format: cell-based; conditions: native α-gliadin 33-mer and ω-gliadin 34-mer, IL-2 production, Table S2, read-out: IC50, inhibition of T-cell stimulation (range)
Description: as §1
The B‐cell/T‐cell collaboration assays were set up as previously described. […] The next day, IL‐2 concentration was measured in the culture supernatant by ELISA as previously described. The responsiveness of different TCR transfectants was assessed in the same way, but without the 30 min incubation with TG2, and using the synthetic deamidated peptides (D‐α‐gliadin 20‐mer, D‐ω‐gliadin 17‐mer, and D‐γ‐gliadin 21‐mer). […]

[4] = DQ2.5-glia-α2, replicate Figure S5A
[5] = DQ2.5-glia-α2, replicate Figure S5B
[6] = logIC50, DQ2.5-glia-α2, Figure 5
[7] = logIC50, DQ2.5-glia-α2, replicate Figure S5A
[8] = logIC50, DQ2.5-glia-α2, replicate Figure S5B

IC50 ([2]; DQ2.5-glia-α2, Figure 5) [µM] | IC50 ([2]; DQ2.5-glia-α2, mean) [µM] | IC50 [2, 4] [µM] | IC50 [2, 5] [µM] | IC50 [3] [µM] | SMILES | toxic effect on B cells or T cells in cellular assays [1] | logIC50 ([2]; DQ2.5-glia-α2, Figure 5) | logIC50 ([2]; DQ2.5-glia-α2, mean) | logIC50 [2, 4] | logIC50 [2, 5] | log 95% CI lower limit [2, 6] | log 95% CI upper limit [2, 6] | log 95% CI lower limit ([2]; logIC50, DQ2.5-glia-α2, mean) | log 95% CI upper limit ([2]; logIC50, DQ2.5-glia-α2, mean) | log 95% CI lower limit [2, 7] | log 95% CI upper limit [2, 7] | log 95% CI lower limit [2, 8] | log 95% CI upper limit [2, 8]
77.3 | 58 | 17.7 | 78.9 | 27 to 58 | NCCCNCCCCNCCCN [spermine] | no toxic effect | 1.89 | 1.68 | 1.25 | 1.90 | 1.53 | 2.27 | 1.25 | 2.11 | 0.638 | 1.83 | 1.59 | 2.22
42.7 | 53.3 | 23.7 | 93.6 | 27 to 58 | NCCCCCNC(=O)CCCC[C@@H]1SC[C@@H]2NC(=O)N[C@@H]21 [5-BP, 5‐biotinamido‐pentylamine] | no toxic effect | 1.63 | 1.66 | 1.37 | 1.97 | 1.48 | 1.78 | 1.39 | 1.93 | 1.15 | 1.60 | 1.54 | 2.43
